# In PMC9758846, “Dinuclear and mononuclear metal(II) polypyridyl complexes against drug-sensitive and drug-resistant Plasmodium falciparum and their mode of action” (Malaria Journal, 2022):
# Where “and” joins values, the source holds several entries; their conditions need not be identical. Identical values can stand only once.
# Assays:
# [1] = test system: Plasmodium falciparum 3D7 (Pf3D7); test: In vitro anti-malarial activity using SYBR Green I nucleic acid dye; assay type: cell-based; conditions: 72 h incubation; read-out: IC50 of Pf3D7
# Description: (§1) The drug-sensitive strain of P. falciparum 3D7 (Pf3D7) was obtained from the Department of Science, Monash University, Malaysia and cultured as previously described. The artemisinin-resistant strain of P. falciparum IPC5202 (Pf5202) was obtained from BEI Resources and cultured as mentioned in the product sheet. Both strains were maintained in sealed flask at 37 °C in a humidified atmosphere of 5% O2, 5% CO2 and 90% N2. All buffer stock solutions for biological assays were autoclaved at 121 °C for 15 min.
# (§2) Previously reported anti-malarial assay was used with slight modification using 1% parasitaemia (ring-stage) and 5% haematocrit treated with test compounds at increasing concentration and incubated for 72 h at 37 °C [21–23]. After the incubation, the assay was terminated by freeze/thaw cycle (− 80 °C overnight before thawing for 2 h) before the addition of lysis buffer containing SYBR Green I dye into each well and mixed thoroughly using the belly dancer for 30 min in the dark. Chloroquine diphosphate salt and artemisinin were used as standard drugs. The fluorescence signal was quantified at 485 nm excitation wavelength and 528 nm emission wavelength. IC50 values of each test compound was determined from a dose response curve by non-linear regression analysis.
# [2] = test system: Plasmodium falciparum IPC5202 (Pf5202); test: as above; assay type: cell-based; conditions: 72 h incubation; read-out: IC50 of Pf5202
# Description: as §1, §2
# [3] = PNDA assay of •OH radicals from reaction with H2O2; conditions: 30 µM compound with excess H2O2
# Description: A previously reported spectrometric assay using PNDA was used to quantify the amount of reactive oxygen species (ROS), viz. •OH radicals, produced by the reaction of metal(II) complexes with hydrogen peroxide in borate buffer at pH 7.5 [24–26]. The percentage of PNDA bleaching and the concentration of •OH produced were determined.
# Pf3D7 [4] = test: Intracellular ROS level using DCFH-DA; assay type: cell-based, Plasmodium falciparum
# Description: (§3) After incubation, packed cells were washed with phosphate buffer saline (PBS) solution. […] The data was expressed as fold change between amount of ROS produced by treated P. falciparum against untreated P. falciparum. Normalization was done with the percentage of parasite viability obtained at each condition. Hydrogen peroxide was used as positive control.
# Pf5202 [5] = test: Intracellular ROS level using DCFH-DA; assay type: cell-based, Plasmodium falciparum
# Description: as §3
# [6] = target: Pf3D7 20S proteasome caspase-like (C-L) site (Plasmodium falciparum, UniProt Q8I0U7); test: 20S proteasome inhibition assay using parasite lysate; assay type: biochemical; conditions: Suc-LLE-AMC, 30 min
# Description: (§4) To harvest P. falciparum parasites, intraerythrocytic Pf3D7 and Pf5202 were collected in trophozoite and early schizont stages. Red blood cells were lysed in 0.15% (w/v) saponin lysis buffer for 10 min at 37 °C. After lysis, the parasite pellet was washed once with PBS buffer by centrifuging at 1600 rpm for 5 min. Saponin lysis buffer was added once again to remove all the red blood cells for 10 min at 37 °C, followed by washing with PBS twice and immediately used or kept at − 80 °C. To prepare parasite lysates for proteasome purification, parasite pellet was resuspended with 100 µl of pre-cooled Pierce™ RIPA buffer. A mild protein extraction method was used to prepare parasite extracts. The resuspended parasites were passed 20 times through a needle with a diameter of 0.4 mm in a syringe on ice to lyse the parasite. After 15 min centrifugation at 13,000 xg at 4 °C, the supernatant was removed. Protein concentration was determined by the Bradford assay. The activities of 3 proteolytic sites were determined by fluorescence assay using fluorogenic peptide substrates (Suc-LLVY-AMC for chymotrypsin-like, Boc-LRR-AMC for trypsin-like and Suc-LLE-AMC for caspase-like) Proteasome activities were determined by monitoring the substrate hydrolysis for 30 min at 37 °C with 340 nm excitation and 465 nm emission wavelength. Activity of each proteolytic site were calculated, and the IC50 values were determined from the non-linear regression analysis. VR23 proteasome inhibitor was used as positive control.
# [7] = target: Pf3D7 20S proteasome chymotrypsin-like (CT-L) site (Plasmodium falciparum, UniProt Q8IJT1); test: as above; assay type: biochemical; conditions: Suc-LLVY-AMC, 30 min
# Description: as §4
# [8] = target: Pf3D7 20S proteasome trypsin-like (T-L) site (Plasmodium falciparum, UniProt Q8I6T3); test: as above; assay type: biochemical; conditions: Boc-LRR-AMC, 30 min
# Description: as §4
# [9] = target: Pf5202 20S proteasome caspase-like (C-L) site (Plasmodium falciparum, UniProt Q8I0U7); test: as above; assay type: biochemical; conditions: Suc-LLE-AMC, 30 min
# Description: as §4
# [10] = target: Pf5202 20S proteasome chymotrypsin-like (CT-L) site (Plasmodium falciparum, UniProt Q8IJT1); test: as above; assay type: biochemical; conditions: Suc-LLVY-AMC, 30 min
# Description: as §4
# [11] = target: Pf5202 20S proteasome trypsin-like (T-L) site (Plasmodium falciparum, UniProt Q8I6T3); test: as above; assay type: biochemical; conditions: for IC50: parasite lysate, Boc-LRR-AMC, 30 min; for Factor by which T-L site of Pf5202 is inhibited better than that of Pf3D7: ratio of T-L IC50 values
# Description: as §4
# Pf3D7 [12] = test: JC-1 mitochondrial membrane potential study; assay type: cell-based, Plasmodium falciparum; conditions: JC-1 red/green fluorescence ratio
# Description: (§5) Mitochondrial membrane potential was investigated using a BD™ MitoScreen Flow Cytometry Mitochondrial Membrane Potential Detection JC-1 kit. In brief, parasitized red blood cells were treated with test compounds at desired concentrations for 12 and 48 h at 37 °C. After incubation, packed cells were stained as per manufacturer’s instructions. Dissipation in Δψm was measured by calculating the ratio between the red and green fluorescence.
# Pf5202 [13] = test: JC-1 mitochondrial membrane potential study; assay type: cell-based, Plasmodium falciparum; conditions: JC-1 red/green fluorescence ratio
# Description: as §5
# Sequence of Pf5202 20S proteasome trypsin-like (T-L) site (Q8I6T3 entry or part of it): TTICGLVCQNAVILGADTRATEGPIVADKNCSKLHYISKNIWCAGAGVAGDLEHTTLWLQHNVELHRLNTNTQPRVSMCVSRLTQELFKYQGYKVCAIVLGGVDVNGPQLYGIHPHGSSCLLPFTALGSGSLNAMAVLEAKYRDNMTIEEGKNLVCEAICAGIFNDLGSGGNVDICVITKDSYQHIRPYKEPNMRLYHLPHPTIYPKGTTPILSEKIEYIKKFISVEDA
# Sequence of Pf5202 20S proteasome chymotrypsin-like (CT-L) site (Q8IJT1 entry or part of it): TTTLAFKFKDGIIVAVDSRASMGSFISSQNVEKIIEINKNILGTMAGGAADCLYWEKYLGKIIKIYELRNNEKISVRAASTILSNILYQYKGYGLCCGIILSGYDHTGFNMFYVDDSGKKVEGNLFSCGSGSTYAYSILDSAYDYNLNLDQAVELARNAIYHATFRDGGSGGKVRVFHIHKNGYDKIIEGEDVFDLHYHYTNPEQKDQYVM
# Sequence of Pf3D7 20S proteasome chymotrypsin-like (CT-L) site (Q8IJT1 entry or part of it): as above
# Sequence of Pf5202 20S proteasome caspase-like (C-L) site (Q8I0U7 entry or part of it): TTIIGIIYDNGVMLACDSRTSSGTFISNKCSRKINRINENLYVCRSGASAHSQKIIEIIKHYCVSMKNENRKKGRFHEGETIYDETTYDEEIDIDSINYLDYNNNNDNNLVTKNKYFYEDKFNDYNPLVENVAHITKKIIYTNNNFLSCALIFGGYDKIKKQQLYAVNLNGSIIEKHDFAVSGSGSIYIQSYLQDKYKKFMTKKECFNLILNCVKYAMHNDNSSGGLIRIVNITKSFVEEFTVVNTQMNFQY
# Sequence of Pf5202 20S proteasome caspase-like (C-L) site (Q8I6T3 entry or part of it, further chain): as the sequence (Q8I6T3 entry or part of it) above
# Sequence of Pf3D7 20S proteasome caspase-like (C-L) site (Q8I6T3 entry or part of it): as above
# Sequence of Pf3D7 20S proteasome caspase-like (C-L) site (Q8I0U7 entry or part of it): as the sequence (Q8I0U7 entry or part of it) above
# Sequence of Pf3D7 20S proteasome trypsin-like (T-L) site (Q8I6T3 entry or part of it): as the sequence (Q8I6T3 entry or part of it) above
molecule,measurement,setting,value
"O.O=[N+]([O-])[O-].O=[N+]([O-])[O-].[Cu+2].c1cnc2c(c1)ccc1cccnc12.c1cnc2c(c1)ccc1cccnc12 [Complex 1, [Cu(phen)2](NO3)2·H2O]",IC50,[1],3510 ± 470 nM
same,IC50,[2],17900 ± 2730 nM
same,Concentration of •OH radical,[3]; 2 h,32.20 ± 2.93 µM
same,Concentration of •OH radical,[3]; 4 h,34.36 ± 2.62 µM
same,Concentration of •OH radical,[3]; 24 h,35.43 ± 1.22 µM
same,Concentration of •OH radical,[3]; 48 h,32.19 ± 0.52 µM
same,Concentration of •OH radical,[3]; 72 h,28.96 ± 0.38 µM
same,fold change in ROS,"Pf3D7 [4]; 24 h, 0.2 µM",1.44 ± 0.10 fold
same,fold change in ROS,"Pf3D7 [4]; 24 h, 1.0 µM",1.54 ± 0.26 fold
same,fold change in ROS,"Pf3D7 [4]; 24 h, 5.0 µM",2.28 ± 0.25 fold
same,fold change in ROS,"Pf3D7 [4]; 24 h, 25.0 µM",7.59 ± 0.46 fold
same,fold change in ROS,"Pf3D7 [4]; 48 h, 0.2 µM",2.45 ± 0.41 fold
same,fold change in ROS,"Pf3D7 [4]; 48 h, 1.0 µM",3.20 ± 0.19 fold
same,fold change in ROS,"Pf3D7 [4]; 48 h, 5.0 µM",4.54 ± 0.52 fold
same,fold change in ROS,"Pf3D7 [4]; 48 h, 25.0 µM",6.83 ± 0.83 fold
same,fold change in ROS,"Pf3D7 [4]; 72 h, 0.2 µM",0.00 ± 0.10 fold
same,fold change in ROS,"Pf5202 [5]; 24 h, 0.2 µM",1.04 ± 0.03 fold
same,fold change in ROS,"Pf5202 [5]; 24 h, 1.0 µM",0.86 ± 0.04 fold
same,fold change in ROS,"Pf5202 [5]; 24 h, 5.0 µM",0.59 ± 0.02 fold
same,fold change in ROS,"Pf5202 [5]; 24 h, 25.0 µM",0.04 ± 0.03 fold
same,fold change in ROS,"Pf5202 [5]; 48 h, 0.2 µM",0.32 ± 0.02 fold
same,fold change in ROS,"Pf5202 [5]; 48 h, 1.0 µM",0.33 ± 0.05 fold
same,fold change in ROS,"Pf5202 [5]; 48 h, 5.0 µM",0.72 ± 0.12 fold
same,fold change in ROS,"Pf5202 [5]; 48 h, 25.0 µM",0.52 ± 0.26 fold
same,fold change in ROS,"Pf5202 [5]; 72 h, 0.2 µM",1.09 ± 0.07 fold
same,fold change in ROS,"Pf5202 [5]; 72 h, 1.0 µM",1.33 ± 0.41 fold
same,fold change in ROS,"Pf5202 [5]; 72 h, 5.0 µM",1.69 ± 0.22 fold
same,IC50,[6],> 25000 nM
same,IC50,[7],> 25000 nM
same,IC50,[8],2390 ± 130 nM
same,IC50,[9],> 25000 nM
same,IC50,[10],> 25000 nM
same,IC50,[11],1620 ± 300 nM
same,Factor by which T-L site of Pf5202 is inhibited better than that of Pf3D7,[11],about 1.5 ×
same,Mitochondrial membrane potential (Δψm),"Pf3D7 [12]; 12 h, 1 µM",17.2 ± 12.8
same,Mitochondrial membrane potential (Δψm),"Pf3D7 [12]; 12 h, 5 µM",29.7 ± 12.1
same,Mitochondrial membrane potential (Δψm),"Pf3D7 [12]; 12 h, 25 µM",1.9 ± 1.1
same,Mitochondrial membrane potential (Δψm),"Pf3D7 [12]; 48 h, 1 µM",41.1 ± 5.1
same,Mitochondrial membrane potential (Δψm),"Pf3D7 [12]; 48 h, 5 µM",43.6 ± 15.0
same,Mitochondrial membrane potential (Δψm),"Pf3D7 [12]; 48 h, 25 µM",0.5 ± 0.3
same,Mitochondrial membrane potential (Δψm),"Pf5202 [13]; 12 h, 1 µM",18.9 ± 2.8
same,Mitochondrial membrane potential (Δψm),"Pf5202 [13]; 12 h, 5 µM",17.5 ± 3.5
same,Mitochondrial membrane potential (Δψm),"Pf5202 [13]; 12 h, 25 µM",1.1 ± 0.6
same,Mitochondrial membrane potential (Δψm),"Pf5202 [13]; 48 h, 1 µM",10.4 ± 3.1
same,Mitochondrial membrane potential (Δψm),"Pf5202 [13]; 48 h, 5 µM",6.0 ± 1.8
same,Mitochondrial membrane potential (Δψm),"Pf5202 [13]; 48 h, 25 µM",1.2 ± 0.1
"[Cu(phen)(NO3)(H2O)-4,4′-bipy-Cu(phen)(NO3)(H2O)](NO3)2 [Complex 3]",IC50,[1],900 ± 120 nM
same,IC50,[2],2200 nM and 2210 nM
same,Concentration of •OH radical,[3]; 2 h,21.13 ± 0.41 µM
same,Concentration of •OH radical,[3]; 4 h,22.16 ± 0.36 µM
same,Concentration of •OH radical,[3]; 24 h,23.51 ± 1.09 µM
same,Concentration of •OH radical,[3]; 48 h,21.29 ± 1.67 µM
same,Concentration of •OH radical,[3]; 72 h,18.89 ± 1.45 µM
same,fold change in ROS,"Pf3D7 [4]; 24 h, 0.2 µM",1.76 ± 0.47 fold
same,fold change in ROS,"Pf3D7 [4]; 24 h, 1.0 µM",1.13 ± 0.56 fold
same,fold change in ROS,"Pf3D7 [4]; 24 h, 5.0 µM",2.30 ± 0.86 fold
same,fold change in ROS,"Pf3D7 [4]; 24 h, 25.0 µM",5.36 ± 0.30 fold
same,fold change in ROS,"Pf3D7 [4]; 48 h, 0.2 µM",1.20 ± 0.64 fold
same,fold change in ROS,"Pf3D7 [4]; 48 h, 1.0 µM",1.28 ± 0.31 fold
same,fold change in ROS,"Pf3D7 [4]; 48 h, 5.0 µM",3.80 ± 1.18 fold
same,fold change in ROS,"Pf3D7 [4]; 48 h, 25.0 µM",5.46 ± 0.25 fold
same,fold change in ROS,"Pf3D7 [4]; 72 h, 0.2 µM",1.49 ± 0.10 fold
same,fold change in ROS,"Pf3D7 [4]; 72 h, 1.0 µM",1.77 ± 0.24 fold
same,fold change in ROS,"Pf3D7 [4]; 72 h, 5.0 µM",1.68 ± 0.41 fold
same,fold change in ROS,"Pf3D7 [4]; 72 h, 25.0 µM",2.74 ± 0.24 fold
same,fold change in ROS,"Pf5202 [5]; 24 h, 0.2 µM",0.04 ± 0.33 fold
same,fold change in ROS,"Pf5202 [5]; 48 h, 0.2 µM",0.52 ± 0.60 fold
same,fold change in ROS,"Pf5202 [5]; 48 h, 1.0 µM",0.66 ± 0.50 fold
same,fold change in ROS,"Pf5202 [5]; 48 h, 5.0 µM",2.53 ± 0.85 fold
same,fold change in ROS,"Pf5202 [5]; 48 h, 25.0 µM",3.39 ± 0.66 fold
same,fold change in ROS,"Pf5202 [5]; 72 h, 5.0 µM",8.43 ± 0.60 fold
same,IC50,[6],> 25000 nM
same,IC50,[7],> 25000 nM
same,IC50,[8],2640 ± 350 nM
same,IC50,[9],> 25000 nM
same,IC50,[10],> 25000 nM
same,IC50,[11],1720 ± 130 nM
same,Factor by which T-L site of Pf5202 is inhibited better than that of Pf3D7,[11],about 1.5 ×
same,Mitochondrial membrane potential (Δψm),"Pf3D7 [12]; 12 h, 1 µM",24.2 ± 1.6
same,Mitochondrial membrane potential (Δψm),"Pf3D7 [12]; 12 h, 5 µM",49.3 ± 23.8
same,Mitochondrial membrane potential (Δψm),"Pf3D7 [12]; 12 h, 25 µM",0.4 ± 0.2
same,Mitochondrial membrane potential (Δψm),"Pf3D7 [12]; 48 h, 1 µM",45.0 ± 26.4
same,Mitochondrial membrane potential (Δψm),"Pf3D7 [12]; 48 h, 5 µM",4.7 ± 2.6
same,Mitochondrial membrane potential (Δψm),"Pf3D7 [12]; 48 h, 25 µM",0.1 ± 0.04
same,Mitochondrial membrane potential (Δψm),"Pf5202 [13]; 12 h, 1 µM",17.5 ± 2.2
same,Mitochondrial membrane potential (Δψm),"Pf5202 [13]; 12 h, 5 µM",16.6 ± 4.6
same,Mitochondrial membrane potential (Δψm),"Pf5202 [13]; 12 h, 25 µM",0.5 ± 0.1
same,Mitochondrial membrane potential (Δψm),"Pf5202 [13]; 48 h, 1 µM",19.2 ± 8.4
same,Mitochondrial membrane potential (Δψm),"Pf5202 [13]; 48 h, 5 µM",0.6 ± 0.1
same,Mitochondrial membrane potential (Δψm),"Pf5202 [13]; 48 h, 25 µM",0.1 ± 0.01
